In US20180014536A1, “AGENT FOR IMPROVING PLANT GROWTH AND METHOD FOR PRODUCING PLANT USING SAME” (FUSO CHEMICAL CO., LTD., priority 2015, published 2018):
Where “and” joins values, the source holds several entries; their conditions need not be identical. Identical values can stand only once.

Key:
leaf lettuce = assay: Verification experiment 13: hydroponics test on leaf lettuce in vinyl greenhouse in summer; format: in vivo
radish sprouts [1] = assay: Verification experiment 5: alkaline stress (potassium hydroxide); settings: leaf spray, then immersed in pH 9.0 solution
Description: Next, by use of radish sprouts, a resistance to alkaline stress caused by potassium hydroxide was investigated.
Zerumbone was sprayed onto the leaf surfaces of the cotyledons of radish sprouts seedlings three to four days after germination, and the seedlings were then cultivated for several days. Meanwhile, only water was sprayed onto the leaf surfaces of another radish sprouts seedlings, and the seedlings were then cultivated for several days. The radish sprouts seedlings thus cultivated were immersed in a pH 9.0 acid solution.

radish sprouts [2] = assay: Verification experiment 4: acid stress (nitric acid); settings: leaf spray, then immersed in pH 2.5 acid solution for one minute
Description: By use of radish sprouts, a resistance to acid stress caused by nitric acid was investigated.
Zerumbone was sprayed onto the leaf surfaces of the cotyledons of radish sprouts seedlings three to four days after germination, and the seedlings were then cultivated for several days. Meanwhile, only water was sprayed onto the leaf surfaces of another radish sprouts seedlings, and the seedlings were then cultivated for several days. The radish sprouts seedlings thus cultivated were immersed in a pH 2.5 acid solution for one minute.

cucumber [3] = assay: Verification experiment 8: low temperature stress, TTC test; format: in vivo
autumn fern [4] = assay: Verification experiment 14: high temperature stress, Pteridophyta, TTC test; format: in vivo; settings: cut leaves immersed in tap water of 45° C. for 18 hours
Description: As a Pteridophyta, autumn fern was used, which is a representative Pteridophyta often found in, […] bright forest. Verification experiments for various stresses were conducted thereon. The experiments were conducted in the following procedures. […] Meanwhile, the leaf surfaces of the control sample were sprayed only with water. After the spraying onto the leaf surfaces, the autumn fern seedlings were cultivated at 25° C. for one day. The leaves were cut in a suitable size, and were then subjected to various stresses. Then, cell activities of the samples were determined by TTC test. The leaves that were cut in the suitable size were immersed in tap water of 45° C. for 18 hours. On such leaves, TTC test was conducted.

cucumber [5] = assay: Verification experiment 9: organic acid stress, TTC test; format: in vivo; settings: cut leaves immersed in 0.4% acetic acid solution for two hours
radish sprouts [6] = assay: Verification experiment 7: recovering from dry stress; format: in vivo; settings: among the four samples; sprayed, dried one night, replanted
Excerpt: Next, radish sprouts seedlings were dried so that the radish sprouts seedlings were severely damaged. Subsequently, adequate water was given to the radish sprouts seedlings. Thus, whether or not the radish sprouts seedlings could be recovered from the damage was verified. First, radish sprouts were immersed in water during night so that germination thereof was promoted. After germination, radish sprouts seedlings planted in vermiculite were impregnated in a nutrient fluid of the Ensi formulation. The radish sprouts seedlings were cultured at 25° C. for five days. A light period during the culture was six hours. Then, zerumbone was sprayed to the radish sprouts seedlings. Meanwhile, water was sprayed to samples used as a control. These radish sprouts seedlings were cultured for one more day. Thereafter, the roots thereof were washed so that the vermiculite was removed therefrom. Then, the roots were wiped with a paper towel. The radish sprouts seedlings were then arranged on a tray, and were dried for one night. The radish sprouts seedlings thus dried were planted in culture soil obtained by blending leaf soil and […] soil in a ratio of 4:6 in a pot.

cucumber [7] = assay: Verification experiment 10: ammonia stress, TTC test; format: in vivo; settings: cut leaves immersed in 1.0% ammonia solution for three hours
autumn fern [8] = assay: Verification experiment 15: organic acid stress, Pteridophyta, TTC test; format: in vivo; settings: cut leaves immersed in 0.4% acetic acid solution for three hours
racomitrium moss [9] = assay: Verification experiment 19: ammonia stress, Bryophyta, TTC test; format: in vivo; settings: samples immersed in 1.0% ammonia solution for 48 hours
cucumber [10] = assay: Verification experiment 6: dry stress; format: in vivo
Description: By use of cucumber, a resistance to dry stress was investigated. 3 ml of Zerumbone was added to cucumber seedlings immediately after germination. The cucumber seedlings were cultivated for 18 days. Meanwhile, another cucumber seedlings were cultivated for 18 days without Zerumbone added thereto. Throughout the cultivation period, a minimum amount of water was given and watering was conducted a minimum number of times so that the soil surface was always kept dry. […] A weight of each of the seedlings was measured. […] Note that, except for the agent, the cultivation conditions used were identical to those of the case where zerumbone was used.

Japanese mustard spinach [11] = assay: Verification experiment 2: high temperature stress, hydroponics, plenty of sunlight (second time-A)
Japanese mustard spinach [12] = assay: Verification experiment 1: high temperature stress, hydroponics (first time); format: in vivo; settings: first time
Description: In order to confirm that the above substances have an efficacy such as alleviation of the various stresses on a plant or promotion of plant growth, some verification experiments were conducted. In each of the verification experiments, solutions of the above substances were used. A concentration thereof was in a range from 0.01 ppm to 10 ppm, in order to exert a sufficient efficacy on a plant. This concentration was appropriately adjusted for each verification experiment. For comparison, similar verification experiments using sanguinarine were conducted. In such a verification experiment for an identical purpose to the above, a concentration of sanguinarine was set to be identical to those of the above substances. A verification experiment for high temperature stress was conducted by use of Japanese mustard spinach. The experiment was conducted in the following procedures. […] Note that the agent used was zerumbone.

cucumber [13] = assay: Verification experiment 3: high temperature stress, soil culture; format: in vivo; settings: leaf spray on cotyledons, 10 days cultivation
Description: Next, an experiment was conducted to confirm effectiveness of the agent in soil culture of cucumber. First, seeds of cucumber were sown in culture soil thrown into 15 cm-pots (size-5 pots) such that the seeds have spaces therebetween. The culture soil contains, as fertilizer components, 180 mg/L of nitrogen, 120 mg/L of phosphoric acid, and 220 mg/L of potassium. The soil was adjusted at pH 6.0. Watering was performed every early morning. […] A growth difference was observed therebetween.

racomitrium moss [14] = assay: Verification experiment 17: high temperature stress, Bryophyta, TTC test; format: in vivo; settings: samples immersed in tap water of 45° C. for 18 hours
Description: As a Bryophyta, racomitrium moss was used, which is a Bryophyta widely used for greening a park, a rooftop, and a garden. Verification experiments for various stresses were conducted thereon. The experiments were conducted in the following procedures. […] Meanwhile, the control sample was sprayed only with water. After the spraying, the racomitrium mosses were cultivated at 25° C. for one day. Then, the samples were subjected to various stresses. Thus, cell activities of the samples were determined by TTC test. […] On such samples, TTC test was conducted.

autumn fern [15] = assay: Verification experiment 16: ammonia stress, Pteridophyta, TTC test; format: in vivo; settings: cut leaves immersed in 1.0% ammonia solution for 48 hours
Japanese mustard spinach [16] = assay: Verification experiment 2: high temperature and low sunshine stress, hydroponics (second time-B)
cucumber [17] = assay: Verification experiment 12: salt stress, TTC test; format: in vivo; settings: cut leaves immersed in 1.0% saline water for 24 hours
racomitrium moss [18] = assay: Verification experiment 18: organic acid stress, Bryophyta, TTC test; format: in vivo; settings: samples immersed in 0.4% acetic acid solution for three hours
cucumber [19] = assay: Verification experiment 11: ultraviolet ray stress, TTC test; format: in vivo; settings: cut leaves irradiated with ultraviolet ray for 24 hours
[20] = leaf lettuce, summer greenhouse hydroponics
[21] = leaf lettuce, summer greenhouse hydroponics, listed as zerumbone

C/C1=C\CC(C)(C)/C=C/C(=O)/C(C)=C/CC1 [Zerumbone, zerumbone]
Growing speed: Harvest timing (leaf lettuce; day on which harvest size reached 150 g to 180 g): 30th day after day after germination
Disease resistance: Powdery mildew (leaf lettuce; [20]): Not occurred
Disease resistance: Root rot (leaf lettuce; [20]): Not occurred
Physiological disorder (quality): Heterophyll (leaf lettuce; [20]): Not occurred
Physiological disorder (quality): Root spread condition (leaf lettuce; [20]): Very good
Physiological disorder (quality): Taste (leaf lettuce; [20]): No bitterness
Physiological disorder (quality): Tip burn (dead fringes of leaf) (leaf lettuce; [20]): Not occurred
Physiological disorder (quality): Unproductive growth (leaf lettuce; [20]): Not occurred
occurrence of a disease (overall) (leaf lettuce; [20]): occurrence of a disease was not observed
physiological disorder (overall) (leaf lettuce; [20]): no physiological disorder occurred
Physiological disorder (quality): Root spread condition (leaf lettuce; [21]): far better than in the sanguinarine test section
Physiological disorder (quality): Taste (leaf lettuce; [21]): no bitterness
resistance to alkaline stress (withering) (radish sprouts [1]): gives a plant resistance to both acid and alkali
withering of seedlings (radish sprouts [2]): Slight withering was observed in some portions
TTC test dyeing (cell activity) (cucumber [3]; cut leaves left two days in dark place at 0° C.): dyed deeply
TTC test dyeing (cell activity) (cucumber [3]; cut leaves left two days in dark place at −10° C.): dyed slightly
TTC test dyeing of leaves (cell activity) (cucumber [3]; remaining plants cultivated two days under fluorescent lamp at 4° C.): dyed deeply except for their peripheries
TTC test dyeing (cell activity) (autumn fern [4]): dyed slightly
cells having an activity (TTC test) (cucumber [5]): approximately half of the cells
samples recovered from the dry state (radish sprouts [6]): three
cells having an activity (TTC test) (cucumber [7]): a part of the cells
TTC test dyeing (cell activity) (autumn fern [8]): dyed slightly
TTC test dyeing (cell activity) (racomitrium moss [9]): dyed slightly
average weight greater than the control samples (cucumber [10]; 18 days dry stress): approximately 13%
growth compared with control (FIG. 2) (cucumber [10]; after 18-day cultivation under dry stress): grew more greatly than the control
Average (cucumber [10]; average seedling weight after 18 days dry stress): 3.00 g
Weight comparison (%) (cucumber [10]; control = 100.0): 113.0%
weights greater than those of the control samples (Japanese mustard spinach [11]; Table 2 experiment): approximately 17%
Growth ratio (%) (Japanese mustard spinach [11]; control = 100.0, second time-A): 116.7%
Weight of 10 samples (Japanese mustard spinach [11]; dry weight of 10 seedlings, nine days, 30-43 °C, plenty of sunlight, second time-A): 2.120 g and 2.176 g and 2.213 g and 2.298 g
Average (Japanese mustard spinach [11]; second time-A): 2.202 g
Average (Japanese mustard spinach [12]; average weight of 10 samples): 1.760 g
weights greater than those of the control samples (Japanese mustard spinach [12]; average weights compared): approximately 15%
Growth ratio (%) (Japanese mustard spinach [12]; control = 100.0): 115.4%
Weight of 10 samples (Japanese mustard spinach [12]; dry weight of 10 seedlings, leaf spray, nine days culture, maximum temperature 30-43 °C, plenty of sunlight): 1.729 g and 1.732 g and 1.787 g and 1.792 g
growth of cucumber seedlings (FIG. 1) (cucumber [13]): grown greatly
TTC test dyeing (cell activity) (racomitrium moss [14]): dyed slightly
TTC test dyeing (cell activity) (autumn fern [15]): dyed slightly
growth better than the growth of the control samples (Japanese mustard spinach [16]; Table 3 experiment, almost no sunlight): approximately 37%
Growth ratio (%) (Japanese mustard spinach [16]; control = 100.0, second time-B): 136.5%
Weight of 10 samples (Japanese mustard spinach [16]; dry weight of 10 seedlings, nine days, 30-43 °C, almost no sunlight, second time-B): 2.137 g and 2.163 g
Average (Japanese mustard spinach [16]; second time-B): 2.150 g
cells alive (TTC test) (cucumber [17]): most of the cells
TTC test dyeing (cell activity) (racomitrium moss [18]): dyed slightly
cells having an activity (TTC test) (cucumber [19]): approximately half of the cells
